# Source: US20220324835A1 (Nurix Therapeutics, Inc., priority 2018, published 2022)
# Where two headings read alike, the source gives them in different places.
# Target: Cbl-b (Homo sapiens, UniProt Q13191)
# Assay: Cbl-b activity assay (Cbl-b inhibition assay), TR-FRET of Cbl-b interaction with UbcH5B-Ub
# Type: biochemical
# Procedure: The ability of candidate compounds to inhibit Cbl-b activity was measured by monitoring the interaction of Cbl-b with UbcH5B-Ub in the presence of the candidate compound.
# Fluorescently labeled UbcH5B-Ub was prepared by conjugating ubiquitin (Ub), labeled at its N-terminus with Bodipy-Fluorescein, to UbcH5B, an E2 enzyme, harboring a cysteine to lysine mutation at position 85. […] After incubation in the presence of the candidate compound, the plate was incubated for an additional 1.5 hours in the presence of 60 nM Src kinase with 1 mM ATP and 5 mM MgCl2 (final concentrations). […] The plate was incubated for 1 hour.
# Column marked with an asterisk (*) were tested as described above with assay buffer containing 50 mM NaCl instead of 100 mM NaCl and 30 nM Src kinase instead of 60 nM Src kinase. The resulting data for the Cbl-b binding assay was solvent corrected and double referenced prior to analysis. All data were globally fit to a steady-state affinity and kinetic binding model where applicable). Fit parameters were derived from a 1:1 binding model using the Biacore T200 Evaluation Software V2.0 (GE Healthcare) (Table 2).
# [1] = assay buffer with 100 mM NaCl, 60 nM Src kinase, read-out: Cbl-b activity IC50
# [2] = * assay buffer containing 50 mM NaCl instead of 100 mM NaCl and 30 nM Src kinase instead of 60 nM, read-out: Cbl-b activity IC50 (μM)*
# Chain of Cbl-b (Q13191 36-427): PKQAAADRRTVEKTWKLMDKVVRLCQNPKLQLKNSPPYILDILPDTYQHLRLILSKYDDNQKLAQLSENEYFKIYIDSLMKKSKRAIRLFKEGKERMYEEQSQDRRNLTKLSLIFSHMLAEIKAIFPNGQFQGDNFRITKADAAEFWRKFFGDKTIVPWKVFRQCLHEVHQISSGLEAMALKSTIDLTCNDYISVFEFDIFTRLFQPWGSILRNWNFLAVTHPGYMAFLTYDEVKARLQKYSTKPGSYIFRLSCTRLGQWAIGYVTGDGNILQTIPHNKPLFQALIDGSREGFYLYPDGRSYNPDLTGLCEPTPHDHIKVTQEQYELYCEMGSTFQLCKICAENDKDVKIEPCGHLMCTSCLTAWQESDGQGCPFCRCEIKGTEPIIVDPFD
Compound,IC50 [1] [µM],IC50 [2] [µM]
"Cn1cnnc1C[C@@H](c1cccc(N2Cc3c(cccc3C(F)(F)F)C2=O)c1)C(F)(F)F [Compound 471b, (S)-2-(3-(1,1,1-trifluoro-3-(4-methyl-4H-1,2,4-triazol-3-yl)propan-2-yl)phenyl)-4-(trifluoromethyl)isoindolin-1-one]",3 to 10,
"CC(Sc1nncn1C)c1cccc(N2Cc3ccccc3C2=O)c1 (centres unmarked) [Compound 162, 2-[3-[1-[(4-methyl-1,2,4-triazol-3-yl)sulfanyl]ethyl]phenyl]isoindolin-1-one]",,3 to 10
"Cc1cnc(C(=O)Nc2cccc([C@H](C)Sc3nncn3C)c2)cc1C [Compound 36, (S)-4,5-Dimethyl-N-(3-(1-((4-methyl-4H-1,2,4-triazol-3-yl)thio)ethyl)phenyl)picolinamide]",,1 to 3
"CC(Sc1nncn1C)c1cccc(NC(=O)c2cc3ccncc3cn2)c1 (centres unmarked) [Compound 19, N-(3-(1-((4-Methyl-4H-1,2,4-triazol-3-yl)thio)ethyl)phenyl)-2,7-naphthyridine-3-carboxamide]",,3 to 10
"Cc1ccc2ccc(C(=O)Nc3cccc(C(C)Sc4nncn4C)c3)nc2n1 (centres unmarked) [Compound 21, 7-Methyl-N-(3-(1-((4-methyl-4H-1,2,4-triazol-3-yl)thio)ethyl)phenyl)-1,8-naphthyridine-2-carboxamide]",,> 10
"C[C@@H](Sc1nncn1C)c1ccnc(NC(=O)c2cccc(C(F)(F)F)n2)c1 [Compound 102a, (R)-N-(4-(1-((4-methyl-4H-1,2,4-triazol-3-yl)thio)ethyl)pyridin-2-yl)-6-(trifluoromethyl)picolinamide]",,3 to 10
"Cc1ccc2cc(C(=O)Nc3cccc(C(C)Sc4nncn4C)c3)cnc2c1 (centres unmarked) [Compound 15, 7-Methyl-N-(3-(1-(4-methyl-4H-1,2,4-triazol-3-ylthio)ethyl)phenyl)quinoline-3-carboxamide]",,> 10
"C[C@@H](Cc1n[nH]cc1CO)c1cccc(N2Cc3c(cccc3C(F)(F)F)C2=O)c1 [Compound 271a, (S)-2-(3-(1-(4-(hydroxymethyl)-1H-pyrazol-3-yl)propan-2-yl)phenyl)-4-(trifluoromethyl)isoindolin-1-one]",> 10,
"Cc1cc(C(=O)Nc2cccc([C@H](C)Sc3nncn3C)c2)ccc1Cl [Compound 28, (S)-4-Chloro-3-methyl-N-(3-(1-((4-methyl-4H-1,2,4-triazol-3-yl)thio)ethyl)phenyl)benzamide]",,1 to 3
"CC(Sc1nncn1C)c1cccc(NC(=O)c2cc3c(cn2)CCCC3)c1 (centres unmarked) [Compound 24, N-(3-(1-((4-Methyl-4H-1,2,4-triazol-3-yl)thio)ethyl)phenyl)-5,6,7,8-tetrahydroisoquinoline-3-carboxamide]",,3 to 10
"Cc1cnnn1C[C@H](C)c1cccc(NC(=O)c2cccc(C(F)(F)F)n2)c1 [Compound 312b, (R)-N-(3-(1-(5-methyl-1H-1,2,3-triazol-1-yl)propan-2-yl)phenyl)-6-(trifluoromethyl)picolinamide]",1 to 3,
"CC(Sc1nncn1C)c1cc(CO)cc(NC(=O)c2ccc3ccccc3n2)c1 (centres unmarked) [Compound 132, N-(3-(hydroxymethyl)-5-(1-(4-methyl-4H-1,2,4-triazol-3-ylthio)ethyl)phenyl)quinoline-2-carboxamide]",,> 10
"Cc1conc1C[C@H](C)c1cccc(N2Cc3c(cccc3C(F)(F)F)C2=O)c1 [Compound 367b, (S)-2-(3-(1-(4-methylisoxazol-3-yl)propan-2-yl)phenyl)-4-(trifluoromethyl)isoindolin-1-one]",1 to 3,
"C[C@@H](Sc1nncn1C)c1ccc(F)c(N2Cc3c(cccc3C(F)(F)F)C2=O)c1 [Compound 170, 2-[2-Fluoro-5-[(1R)-1-[(4-methyl-1,2,4-triazol-3-yl)sulfanyl]ethyl]phenyl]-4-(trifluoromethyl)isoindolin-1-one]",> 10,
"CC(Sc1nncn1C)c1cccc(NC(=O)c2cc3ccc(Cl)cc3cn2)c1 (centres unmarked) [Compound 25, 7-Chloro-N-(3-(1-((4-methyl-4H-1,2,4-triazol-3-yl)thio)ethyl)phenyl)isoquinoline-3-carboxamide]",,1 to 3
"Cc1ccc(C(=O)Nc2cccc([C@H](C)Sc3nncn3C)c2)cc1C [Compound 27, (S)-3,4-Dimethyl-N-(3-(1-((4-methyl-4H-1,2,4-triazol-3-yl)thio)ethyl)phenyl)benzamide]",,3 to 10

Compound,IC50 [1] [µM],IC50 [2] [µM]
"Cn1cnnc1[C@@H](F)[C@@](C)(F)c1cccc(N2Cc3c(cc(C4CC4)cc3C(F)(F)F)C2=O)c1 [Compound 481b, 6-cyclopropyl-2-[3-[(1R,2S)-1,2-difluoro-1-(4-methyl-4H-1,2,4-triazol-3-yl)propan-2-yl]phenyl]-4-(trifluoromethyl)-2,3-dihydro-1H-isoindol-1-one]",1 to 3,
"CC(C)c1ccnc(C(=O)Nc2cccc([C@H](C)Sc3nncn3C)c2)c1 [Compound 37, (S)-4-Isopropyl-N-(3-(1-((4-methyl-4H-1,2,4-triazol-3-yl)thio)ethyl)phenyl)picolinamide]",,3 to 10
"CC(Sc1nccn1C)c1ccc(F)c(NC(=O)c2cccc(C(F)(F)F)n2)c1 (centres unmarked) [Compound 101, N-[2-fluoro-5-[1-(1-methylimidazol-2-yl)sulfanylethyl]phenyl]-6-(trifluoro-methyl)pyridine-2-carboxamide]",,3 to 10
"CC(Sc1nncn1C)c1cccc(NC(=O)c2ccc3ccc(Cl)cc3n2)c1 (centres unmarked) [Compound 16, 7-Chloro-N-(3-(1-((4-methyl-4H-1,2,4-triazol-3-yl)thio)ethyl)phenyl)quinoline-2-carboxamide]",,3 to 10
"C[C@H](Cc1nncs1)c1cccc(N2Cc3c(cccc3C(F)(F)F)C2=O)c1 [Compound 368, (R)-2-(3-(1-(1,3,4-thiadiazol-2-yl)propan-2-yl)phenyl)-4-(trifluoromethyl)isoindolin-1-one]",0.301 to 1,
"C[C@H](Cc1nncn1C)c1cccc(N2Cc3c(ccnc3C(C)(C)F)C2=O)c1 [Compound 373, 4-(2-fluoropropan-2-yl)-2-[3-[(2R)-1-(4-methyl-4H-1,2,4-triazol-3-yl)propan-2-yl]phenyl]-1H,2H,3H-pyrrolo[3,4-c]pyridin-1-one]",0.301 to 1,
"Cc1[nH]cnc1C[C@@H](C)c1cccc(N2Cc3c(cccc3C(F)(F)F)C2=O)c1 [Compound 272a, 2-[3-[(2R)-1-(5-methyl-1H-imidazol-4-yl)propan-2-yl]phenyl]-4-(trifluoromethyl)isoindolin-1-one]",0.1 to 0.3,
"CCn1cnnc1CC1(c2cccc(NC(=O)c3cc(C)nc(C4CC4)n3)c2)COC1 [Example 705, 2-cyclopropyl-N-(3-{3-[(4-ethyl-1,2,4-triazol-3-yl)methyl]oxetan-3-yl}phenyl)-6-methylpyrimidine-4-carboxamide]",3 to 10,
"CC(Sc1nncn1C)c1cccc(NC(=O)c2ccc3cccnc3n2)c1 (centres unmarked) [Compound 18, N-(3-(1-((4-Methyl-4H-1,2,4-triazol-3-yl)thio)ethyl)phenyl)-1,8-naphthyridine-2-carboxamide]",,3 to 10
"CC(Sc1nncn1C)c1ccnc(N2Cc3ccccc3C2=O)c1 (centres unmarked) [Compound 171, 2-(4-(1-((4-methyl-4H-1,2,4-triazol-3-yl)thio)ethyl)pyridin-2-yl)isoindolin-1-one]",,3 to 10
"CC(Sc1nncn1C)c1cccc(N2Cc3c(cccc3C(F)(F)F)C2=O)c1 (centres unmarked) [Compound 166, 2-(3-(1-((4-methyl-4H-1,2,4-triazol-3-yl)thio)ethyl)phenyl)-4-(trifluoromethyl)isoindolin-1-one]",,0.301 to 1
"CC(Sc1nncn1C)c1cccc(NC(=O)c2ccc3ncccc3n2)c1 (centres unmarked) [Compound 20, N-(3-(1-((4-Methyl-4H-1,2,4-triazol-3-yl)thio)ethyl)phenyl)-1,5-naphthyridine-2-carboxamide]",,3 to 10
"Cn1cnnc1C(F)[C@@](C)(F)c1cccc(N2Cc3c(cccc3C(F)(F)F)C2=O)c1 (stereo in doubt) [Compound 478b, 2-(3-((1R,2S)-1,2-difluoro-1-(4-methyl-4H-1,2,4-triazol-3-yl)propan-2-yl)phenyl)-4-(trifluoromethyl)isoindolin-1-one]",1 to 3,
"CC(Sc1nncn1C)c1cccc(NC(=O)c2cc3ccccc3c(=O)[nH]2)c1 (centres unmarked) [Compound 22, N-(3-(1-((4-Methyl-4H-1,2,4-triazol-3-yl)thio)ethyl)phenyl)-1-oxo-1,2-dihydroisoquinoline-3-carboxamide]",,> 10
"CC(Sc1nccn1C)c1cccc(NC(=O)c2cc3ccccc3cn2)c1 (centres unmarked) [Compound 100, N-[3-[1-(1-methylimidazol-2-yl)sulfanylethyl]phenyl]isoquinoline-3-carboxamide]",,3 to 10
"C[C@H](Cc1nncn1C)c1cc(NC2(C)COC2)nc(N2Cc3c(cccc3C(F)(F)F)C2=O)c1 [Compound 349, 2-{4-[(2R)-1-(4-methyl-4H-1,2,4-triazol-3-yl)propan-2-yl]-6-[(3-methyloxetan-3-yl)amino]pyridin-2-yl}-4-(trifluoromethyl)-2,3-dihydro-1H-isoindol-1-one]",0.301 to 1,
